In US6124477A, “Anti-first-pass effect compounds” (priority 1997, dated 2000):
Like-named read-outs stand apart in the source and are kept apart here.

How the values were obtained:
first-pass effect [1] = details: in vivo; cited from earlier work
[2] = in vivo; cited from earlier work
Human Cytochrome P450 [3] = assay: Determination of first-pass effectiveness of furocoumarins (human cytochrome P450-mediated biotransformation, Protocol C / C'); assay type: in vitro ADME
Method: The process of preparing incubation mixtures begins by mixing 10 uL of ethanol or an ethanolic solution containing an inhibitor with 100 uL of 100 mg/mL bovine serum albumin (Sigma) dissolved in reaction buffer at room temperature. Reaction buffer is composed of 0.10 M sodium phosphate, 1.0 mM ethylenediaminetetraacetic acid, and 5.0 mM magnesium chloride, pH 7.4 (all reagents: Fisher Scientific). Inhibitory chemicals used were ketoconazole (Research Diagnostics, Inc.), miconazole, bergapten, xanthotoxin (previous three from Sigma), bergamotin, imperatorin, isopimpinellin, psoralen, angelicin (previous five from Indofine Chemical Company, Inc.), and fractions or precipitates resulting from Protocols A, A', B, B', or B" above. When possible, final inhibitor concentrations were expressed in molarity by calculation from the weighed material or by interpolation from HPLC calibration curves prepared with reference materials; otherwise, concentrations are expressed as weight per volume. Reaction tubes are placed on ice in preparation for the manipulations that follow. Sufficient reaction buffer is added so that the final volume of each tube will be 500 uL, 5 uL of a 100-fold concentrate for generating reduced nicotinamide adenine dinucleotide phosphate is added (such that completed reaction mixture contains 1.0 mM nicotinamide adenine dinucleotide phosphate, 1 U/mL glucose-6-phosphate dehydrogenase, and 10 mM glucose-6-phosphate; all from Sigma), and then human hepatic S9 (Anatomic Gift Foundation) is thawed and added in sufficient amounts to cause readily detectable amounts of metabolites to be formed in control reactions (amount necessary varies among individuals, but 10 uL is typical).
The samples prepared above are readied for HPLC assessment using the protocol that follows. Each tube is vortex mixed and centrifuged for 10 min at setting 35, the resulting supernatant is transferred to a clean tube, and the liquid is evaporated using a Speed Vac apparatus. The residue in each tube is first dissolved in 40 uL 1:1 acetonitrile:water, 2.5 mL of acetonitrile is added, and the centrifuge-transfer-evaporate step just described is repeated.
Linear gradients are used for elution and are formed by mixing mobile phase A composed of water with mobile phase B composed of 0.025% (v/v) formic acid in acetonitrile (instrument: Hewlett Packard). The elution time, in minutes, the percentage of mobile phase B present in the mixed mobile phase, and the flow rate (mL/min) are as follows: 0, 10, 0.10; 2, 10, 0.10; 3.5, 10, 0.20; 4, 10, 0.25; 5, 10, 0.25; 30, 55, 0.25; 32, 98, 0.25; 33, 98, 0.40; 39.8, 98, 0.40; 40, 98, 0.25; 45, 10, 0.25; 45.25, 10, 0.20; 50, 10, 0.20; 50.25, 10, 0.10. The chromatographic column has dimensions of 150 mm length×2.1 mm internal diameter, is packed with a proprietary material (Prism, Keystone Scientific, Inc.), is protected with a 2 mm internal diameter column containing the same material and with a PTFE filter, and is maintained at 35+/-0.2° C. The dry sample residue is mixed with 60 uL of 1:1 acetonitrile:water followed by 40 uL water just prior to each 50.25 min run cycle. The column eluate from each 10 uL injection is monitored for fluorescence with excitation at 228 nm, emission at 291 nm, and bandpass filtration at 280 nm.
The process of preparing incubation mixtures begins by mixing 10 uL of ethanol (control reactions) or an ethanolic solution containing an inhibitor with 100 uL of 100 mg/mL bovine serum albumin (Sigma) dissolved in reaction buffer at room temperature. Reaction buffer is composed of 0.10 M sodium phosphate, 1.0 mM ethylenediaminetetraacetic acid, and 5.0 mM magnesium chloride, pH 7.4 (all reagents: Fisher Scientific). […] Final inhibitor concentrations were expressed in molarity by calculation from the weighed material or by use of Beer's law. Reaction tubes are placed on ice in preparation for the manipulations that follow. […]

Human Cytochrome P450 [4] = assay: Protocol C': generation of saquinavir metabolites by human hepatic S9 in the presence of inhibitor; assay type: in vitro ADME
Method: The process of preparing incubation mixtures begins by mixing 10 uL of ethanol (control reactions) or an ethanolic solution containing an inhibitor with 100 uL of 100 mg/mL bovine serum albumin (Sigma) dissolved in reaction buffer at room temperature. Reaction buffer is composed of 0.10 M sodium phosphate, 1.0 mM ethylenediaminetetraacetic acid, and 5.0 mM magnesium chloride, pH 7.4 (all reagents: Fisher Scientific). […] Final inhibitor concentrations were expressed in molarity by calculation from the weighed material or by use of Beer's law. Reaction tubes are placed on ice in preparation for the manipulations that follow. Sufficient reaction buffer is added so that the final volume of each tube will be 500 uL, 5 uL of a 100-fold concentrate for generating reduced nicotinamide adenine dinucleotide phosphate is added (such that completed reaction mixture contains 1.0 mM nicotinamide adenine dinucleotide phosphate, 1 U/mL glucose-6-phosphate dehydrogenase, and 10 mM glucose-6-phosphate; all from Sigma), and then human hepatic S9 (Anatomic Gift Foundation) is thawed and added in sufficient amounts to cause readily detectable amounts of metabolites to be formed in control reactions (amount necessary varies among individuals, but 10 uL is typical). […]
The samples prepared above are readied for HPLC assessment using the protocol that follows. […]

first-pass effect [5] = details: inhibitors commonly given to humans; cited from earlier work
cytochrome P450 = details: given to humans in large doses; cited from earlier work

Structure (SMILES): CC[C@H]1OC(=O)[C@H](C)[C@@H](O[C@H]2C[C@@](C)(OC)[C@@H](O)[C@H](C)O2)[C@H](C)[C@@H](O[C@@H]2O[C@H](C)C[C@H](N(C)C)[C@H]2O)[C@](C)(O)C[C@@H](C)C(=O)[C@H](C)[C@@H](O)[C@]1(C)O [erythromycin]
- inhibition of the first-pass effect (first-pass effect [1]): inhibitors of the first-pass effect

Structure (SMILES): COc1c2ccoc2cc2oc(=O)ccc12 [bergapten, 5-methoxypsoralen]
- phototoxicity [2]: phototoxic

Structure (SMILES): CC(=O)N1CCN(c2ccc(OCC3COC(Cn4ccnc4)(c4ccc(Cl)cc4Cl)O3)cc2)CC1 (stereo not drawn) [ketoconazole]
- inhibition of the first-pass effect (first-pass effect [1]): inhibitors of the first-pass effect

Structure (SMILES): CC(C)=CCOc1c2occc2cc2ccc(=O)oc12 [imperatorin]
- first-pass effect effectiveness (Human Cytochrome P450 [3]; determined herein): ineffective
- first-pass inhibition (saquinavir metabolite generation) (Human Cytochrome P450 [4]; FIG. 1, Protocol C', saquinavir, human hepatic S9): essentially ineffective first-pass inhibitors

Structure (SMILES): CCC(C)n1ncn(-c2ccc(N3CCN(c4ccc(OCC5COC(Cn6cncn6)(c6ccc(Cl)cc6Cl)O5)cc4)CC3)cc2)c1=O (stereo not drawn) [itraconazole]
- inhibition of the first-pass effect (first-pass effect [1]): inhibitors of the first-pass effect

Structure (SMILES): Cc1ncc2n1-c1ccc(Cl)cc1C(c1ccccc1F)=NC2 [midazolam]
- bioavailability in presence of inhibitors (first-pass effect [5]): bioavailability is increased by inhibitors commonly given to humans

Structure (SMILES): COc1c2ccoc2c(OC)c2oc(=O)ccc12 [isopimpinellin]
- first-pass effect effectiveness (Human Cytochrome P450 [3]; determined herein): ineffective

Structure (SMILES): COc1c2occc2cc2ccc(=O)oc12 [xanthotoxin, 8-methoxypsoralen]
- phototoxicity [2]: phototoxic

Structure (SMILES): O=c1ccc2ccc3occc3c2o1 [angelicin]
- first-pass effect effectiveness (Human Cytochrome P450 [3]; determined herein): ineffective

Structure (SMILES): Cc1nnc2n1-c1ccc(Cl)cc1C(c1ccccc1Cl)=NC2 [triazolam]
- bioavailability in presence of inhibitors (first-pass effect [5]): bioavailability is increased by inhibitors commonly given to humans

Structure (SMILES): CC(C)=CCC/C(C)=C/COc1c2ccoc2cc2oc(=O)ccc12 [bergamottin]
- first-pass effect effectiveness (Human Cytochrome P450 [3]): ineffective
- first-pass inhibition (saquinavir metabolite generation) (Human Cytochrome P450 [4]): essentially ineffective first-pass inhibitors

Structure (SMILES): OC(Cn1cncn1)(Cn1cncn1)c1ccc(F)cc1F [fluconazole]
- inhibition of the first-pass effect (first-pass effect [1]): inhibitors of the first-pass effect

Structure (SMILES): O=c1ccc2cc3ccoc3cc2o1 [psoralen]
- first-pass effect effectiveness (Human Cytochrome P450 [3]; determined herein): ineffective
- phototoxicity [2]: phototoxic
- inhibition of cytochrome P450 (cytochrome P450): do inhibit cytochrome P450

Structure (SMILES): C/C(=C\COc1ccc2ccc(=O)oc2c1)CCC(O)C(C)(C)O (stereo not drawn) [marmin]
- first-pass effect effectiveness (Human Cytochrome P450 [3]): ineffective

Structure (SMILES): C/C(=C\COc1c2ccoc2cc2oc(=O)ccc12)CCC(O)C(C)(C)O (stereo not drawn) [6', 7'-dihydroxybergamottin]
- first-pass effect effectiveness (Human Cytochrome P450 [3]): ineffective

Structure (SMILES): CO[C@H]1C[C@H](O[C@H]2[C@H](C)[C@@H](O[C@@H]3O[C@H](C)C[C@H](N(C)C)[C@H]3OC(C)=O)[C@@H](C)C[C@@]3(CO3)C(=O)[C@H](C)[C@@H](OC(C)=O)[C@@H](C)[C@@H](C)OC(=O)[C@@H]2C)O[C@@H](C)[C@@H]1OC(C)=O [troleandomycin]
- inhibition of the first-pass effect (first-pass effect [1]): inhibitors of the first-pass effect

Structure (SMILES): Clc1ccc(COC(Cn2ccnc2)c2ccc(Cl)cc2Cl)c(Cl)c1 (stereo not drawn) [miconazole]
- inhibition of the first-pass effect (first-pass effect [1]): inhibitors of the first-pass effect
